Results: ChEMBL document CHEMBL5303304, “EUbOPEN Chemogenomics Library - IncuCyte” (2023)

Legend:
Format in all cases: toxicity, cell-based
Fibroblast = assay: Incucyte cell viability with human fibroblast; settings: 10 µM, compound concentration 10 uM
HEK-293T = assay: Incucyte cell viability with HEK293T; settings: human, 10 µM, compound concentration 10 uM
U2OS = assay: Incucyte cell viability with U2OS; settings: human, 10 µM, compound concentration 10 uM
Further: unitless GR value; below 1 slowed growth and below 0 cell loss.

Row | SMILES | Growth Rate (Fibroblast; 6 h, replicate number 1) | Growth Rate (Fibroblast; 6 h, replicate number 2) | Growth Rate (Fibroblast; 12 h, replicate number 1) | Growth Rate (Fibroblast; 12 h, replicate number 2) | Growth Rate (Fibroblast; 18 h, replicate number 1) | Growth Rate (Fibroblast; 18 h, replicate number 2) | Growth Rate (Fibroblast; 24 h, replicate number 1) | Growth Rate (Fibroblast; 24 h, replicate number 2) | Growth Rate (HEK-293T; 6 h, replicate number 2) | Growth Rate (HEK-293T; 12 h, replicate number 1) | Growth Rate (HEK-293T; 12 h, replicate number 2) | Growth Rate (HEK-293T; 18 h, replicate number 1) | Growth Rate (HEK-293T; 18 h, replicate number 2) | Growth Rate (HEK-293T; 24 h, replicate number 1) | Growth Rate (HEK-293T; 24 h, replicate number 2) | Growth Rate (U2OS; 0 h, replicate number 1) | Growth Rate (U2OS; 6 h, replicate number 2) | Growth Rate (U2OS; 12 h, replicate number 1) | Growth Rate (U2OS; 24 h, replicate number 1) | Growth Rate (U2OS; 24 h, replicate number 2) | other results
1 | CCN1C(=O)N(c2c(F)c(OC)cc(OC)c2F)Cc2cnc3[nH]c(CN4CCOCC4)cc3c21 [PEMIGATINIB] | 0.04 | 0.12 | 0.42 | 0.45 | 0.23 | 0.53 | 0.19 | 0.49 | 0.25 | 0.76 | 0.59 | 0.68 | 0.33 | 0.57 | 0.3 | -0.31 | -0.01 | -0.36 | 0.62 | 0.19 | Growth Rate (Fibroblast; 0 h, replicate number 2): 0.11; Growth Rate (HEK-293T; 0 h, replicate number 1): 0; Growth Rate (U2OS; 0 h, replicate number 2): -0.02; Growth Rate (U2OS; 6 h, replicate number 1): 0.58; Growth Rate (U2OS; 12 h, replicate number 2): 0.07; Growth Rate (U2OS; 18 h, replicate number 1): 0.5; Growth Rate (U2OS; 18 h, replicate number 2): 0.2
2 | FC(F)(F)c1ccc(CNc2ccc(Cc3c[nH]c4ncc(Cl)cc34)cn2)cn1 [PEXIDARTINIB] | 0.64 | 0.13 | 0.87 | 0.34 |  | 0.9 |  |  |  |  |  |  |  |  |  |  |  |  | 0.95 | 0.98 | Growth Rate (Fibroblast; 0 h, replicate number 1): -1; Growth Rate (HEK-293T; 0 h, replicate number 2): -0.38
3 | CC(=O)NCC(=O)N1[C@@H]2CC[C@H]1c1ccc(Nc3ncc(C(F)(F)F)c(NC4CCC4)n3)cc12 [PF-03814735] | -1 |  |  | 0.65 | 0.52 | 0.15 | 0.86 | 0.08 | -0.94 | -0.89 | -0.75 | -0.72 | -0.55 | -0.57 | -0.39 | -0.94 | 1 | -0.05 | 0.02 | -0.08 | Growth Rate (Fibroblast; 0 h, replicate number 1): -0.26; Growth Rate (HEK-293T; 6 h, replicate number 1): -0.95; Growth Rate (U2OS; 12 h, replicate number 2): -0.14; Growth Rate (U2OS; 18 h, replicate number 1): 0.03; Growth Rate (U2OS; 18 h, replicate number 2): -0.08
